In ChEMBL document CHEMBL4145573, “Antinociceptive Diterpenoids from the Leaves and Twigs of Rhododendron decorum” (2018):
Calls of active or inactive are those of the source. No cut-off for these calls is given here.

Legend:
[1] = system: Mus musculus; experiment: Antinociceptive activity in Kunming mouse assessed as inhibition of acetic acid-induced writhes at 10 mg/kg, ip pretreated for 15 mins followed by acetic acid challenge measured for 30 mins; format: functional, organism-based
[2] = system: Mus musculus; experiment: Antinociceptive activity in Kunming mouse assessed as inhibition of acetic acid-induced writhes at 0.8 mg/kg, ip pretreated for 15 mins followed by acetic acid challenge measured for 30 mins relative to control; format: functional
[3] = system: Mus musculus; experiment: Antinociceptive activity in Kunming mouse assessed as inhibition of acetic acid-induced writhes at 0.08 mg/kg, ip pretreated for 15 mins followed by acetic acid challenge measured for 30 mins relative to control; format: functional

SMILES | inhibition [1] | also measured
C=C1C[C@]23C[C@H]1CC[C@H]2C(=C)[C@@H]1C[C@H](O[C@@H]2O[C@H](CO)[C@@H](O)[C@H](O)[C@H]2O)C(C)(C)[C@@]1(O)[C@H](O)C3 | Active | 
C=C1[C@@H]2[C@@H](O)[C@H](O)C(C)(C)[C@@]2(O)[C@H](O)C[C@@]23C[C@@](O)(CC[C@@H]12)[C@](C)(O)C3 | Active | 
CN1CC[C@]23c4c5ccc(O)c4O[C@H]2[C@@H](O)C=C[C@H]3[C@H]1C5 [MORPHINE] |  | inhibition in vivo at 0.8 mg/kg [2]: 86%
CC1(C)[C@@H](O)[C@H](O)[C@H]2[C@](C)(O)[C@@H]3CC[C@]4(O)C[C@@]3(C[C@@H](O)[C@@]21O)C[C@@]4(C)O |  | inhibition in vivo at 0.8 mg/kg [2]: 68%
C=C1[C@H]2CC[C@]3(O)C[C@@]2(C[C@@H](O)[C@@]2(O)[C@H]1C[C@H](O)C2(C)C)C[C@@]3(C)O | Active | 
C=C1[C@H]2C[C@@H](O)C(C)(C)[C@H](O)[C@@H]2C[C@@]23C[C@@](O)(CC[C@@H]12)[C@](C)(O)C3 | Active | 
CC1(C)[C@H]2O[C@H]2[C@H]2[C@](C)(O)[C@@H]3CC[C@]4(O)C[C@@]3(C[C@@H](O)[C@@]21O)C[C@@]4(C)O |  | inhibition in vivo at 0.08 mg/kg [3]: 78%
